pEC50: −log10 of the molar value. Read-outs that look alike come from different tables or passages of the source. Each block holds one compound with its values, some of them ahead of it.
How the values were obtained:
[1] = tested on: HCMV TB40/E strain; assay: Plaque reduction assay, HCMV TB40/E strain in human foreskin fibroblasts, single drugs and 2-drug combinations (Chou-Talalay); type: cell-based, human cytomegalovirus; settings: for Dose of drug alone at Fa 0.75: Fa 0.75, drug alone; for Dose of drug alone at Fa 0.9: Fa 0.9, drug alone; for Dose of drug alone at Fa 0.95: Fa 0.95, drug alone; for Dose of drug alone at Fa 0.97: Fa 0.97, drug alone; for Dose of drug alone at Fa 0.05: Fa (fraction of virus affected) 0.05, drug alone
Description: The CMV strain used was TB40/E. The CMV strain was propagated and tittered in human foreskin fibroblasts (HFF) cells. Cell-free virus stocks and cell-associated clinical isolates were maintained at -70° C. Viral stocks were tittered by serial 10-fold dilution in 24-well tissue culture plates containing HFF monolayers overlaid with agarose-medium. After incubation for 7 to 14 days, plaques were enumerated, and virus titer was determined as plaque forming units (PFU) per milliliter (ml). Stocks of artemisone (10 mM), ganciclovir (10 mM), BDCRB (120 mM), brincidofovir (1 mM), maribavir (10 mM) and letermovir (10 mM) were prepared in DMSO or H2O.
Cell monolayers were inoculated in 24-well culture plates with 0.2 ml of virus suspension containing 60 to 100 PFU per well. After adsorption for 60 -120 min at 37° C., the inoculum was removed, and culture medium was replaced with agarose-medium overlay containing serial concentrations of the tested drug(s). Plates were incubated for 7-14 days at 37° C. in a 5% CO2 incubator. Plaques were then counted microscopically.
The effect of a combination of artemisone with each one of ganciclovir (HCMV DNA polymerase), BDCRB (HCMV terminase inhibitor), brincidofovir (HCMV DNA polymerase inhibitor), maribavir (HCMV UL97 kinase inhibitor) and letermovir (HCMV terminase inhibitor) was evaluated by the classical plaque reduction assay. The in vitro activity of each of the above mentioned antiviral compounds alone or in combination with artemisone was evaluated by the classical plaque reduction assay, using HCMV TB40/E strain in human foreskin fibroblasts cells. The concentration of each antiviral compound that reduced the plaque formation by 50% (EC50) was determined as previously described in Wolf DG et al., J Clin Invest. 1995;95:257-63. The individual EC50 values in human foreskin fibroblasts were as follows: artemisone EC50 - 1 µM; ganciclovir EC50 - 1 µM; maribavir EC50 - 1 µM; BDCRB EC50 - 0.5 µM; letermovir EC50 - 5 nM; brincidofovir EC50 -1 nM.
For the 2-drug combination studies, the EC50 value of each drug was used to determine an equipotent ratio between the two compounds (EC50 of drug 1 / EC50 of drug 2). Serial 2-fold dilutions of a mixture comprising artemisone and another antiviral compound at initial concentrations equivalent to 4-fold the equipotent ratio were added to duplicate wells of cells infected with HCMV. Overall, 5 different concentrations of the drug combinations were used: 4xEC50, 2xEC50, 1xEC50,0.5xEC50,0.25xEC50. The cell monolayers were inoculated in 24-well culture plates with 0.2 ml of virus suspension containing 60 to 100 plaque-forming unit (PFU) per well; the Multiplicity of infection (MOI) was 0.001-0.002 PFU/cell).
D1 and D2 are the doses of the two drugs, and Dx is a dose causing to x% effect (LD0.5 is EC50). Briefly, the software extrapolated a combination index (CI) representing the interaction between the two drugs at specified levels of virus inhibition (that is 50%, 75%, 90%, 95%) versus the percentages of the inhibition induced by each drug alone and in combination (equation 16 in Chou).
A weighted average CI (CIwt) was then calculated for each combination as (CI50+ 2×CI75+3×CI90+4×CI95)/10, to access the drug combinatory effects.
The dose reduction index (DRI) was then calculated as described in Chou. In general, the DRI measures the fold of dose reduction of each drug in the combination at a given effect level compared with the doses of each drug alone. For each one of the below tables: Fa - fraction of virus affected; doses are provided in µm.

[2] = tested on: HCMV; assay: Ex vivo HCMV infection of human decidual (placental) tissue organ cultures, viral mRNA copy number; type: cell-based, human cytomegalovirus; settings: for pEC50: Human betaherpesvirus 5; for Dose of drug alone at Fa 0.9: Fa 0.9, drug alone; for DRI (dose reduction index): combination artemisone + maribavir
Description: Organ cultures were washed and stored at -80° C. until assayed. RNA was extracted, and the purified RNA samples were subjected to reverse transcription (RT), followed by quantitative real-time PCR. The viral mRNA copy number was normalized by the cellular housekeeping gene β-actin.
We employed our model of HCMV infection in human decidual tissues (representing the maternal aspect of the chimeric human placenta), maintained as multi-cell-type 3D organ cultures as described in Weisblum Y. et al. J Virol 2011 85(24): 13204-13. doi: 10.1128/JVI.05749-11. For infection of the organ cultures, decidual tissues were placed in 48-well plates and inoculated with the virus (5x10^4 plaque forming units (PFU)/well) for 12 h to allow effective viral adsorption. The tissues were further monitored for viral infection and spread for 7 days. For determination of the drug EC50 values of in the tissues, serial drug concentrations: each drug separately or combination of the drugs were added to the infected decidual tissues during viral adsorption at any further medium replacement to keep the drug concentration constant. The results were compared to samples to which the drug was not added. The EC50 was defined as the drug concentration required to reduce the viral mRNA copy number by 50%. The effect of drug combinations was tested in accordance with the Chou-Talalay method. All comparative experiments were performed in parallel on tissues from the same donor.
The dose reduction index (DRI) was then calculated as described in Chou. As described earlier, the DRI is a measure of how many folds the dose of each drug in a synergistic combination may be reduced at a given effect level compared with the doses of each drug alone. For each one of the below tables: Fa - fraction of virus affected; doses are provided in µm.

[3] = Human betaherpesvirus 5, Fibroblast, drug alone, human foreskin fibroblasts, read-out: EC50 (concentration that reduced the plaque formation by 50%)
[4] = Human betaherpesvirus 5, Fibroblast, Fa 0.5, drug alone, read-out: Dose of drug alone at Fa 0.5

Compound: OC[C@H]1O[C@@H](n2c(Br)nc3cc(Cl)c(Cl)cc32)[C@H](O)[C@@H]1O [BDCRB, 2-bromo-5,6-dichloro-1-beta-D-ribofuranosyl benzimidazole]
- pEC50 [1, 3]: 6.30

Compound: Nc1ccn(C[C@@H](CO)OCP(=O)(O)O)c(=O)n1 [cidofovir]
- Dose of drug alone at Fa 0.75 [1]: 0.646 µm
- Dose of drug alone at Fa 0.9 [1]: 1.148 µm
- Dose of drug alone at Fa 0.95 [1]: 1.698 µm
- Dose of drug alone at Fa 0.97 [1]: 2.242 µm
- Dose of drug alone at Fa 0.05 [1]: 0.07783 µm
- pEC50 [1, 4]: 6.44
- DRI (dose reduction index) ([1]; combination artemisone + cidofovir, Fa 0.05): 1.038
- DRI (dose reduction index) ([1]; combination artemisone + cidofovir, Fa 0.5): 1.757
- DRI (dose reduction index) ([1]; combination artemisone + cidofovir, Fa 0.75): 2.139
- DRI (dose reduction index) ([1]; combination artemisone + cidofovir, Fa 0.9): 2.6
- DRI (dose reduction index) ([1]; combination artemisone + cidofovir, Fa 0.9, listed as CDV): 2.603
- DRI (dose reduction index) ([1]; combination artemisone + cidofovir, Fa 0.95): 2.975
- DRI (dose reduction index) ([1]; combination artemisone + cidofovir, Fa 0.97): up to 3.27
- DRI (dose reduction index) ([1]; combination artemisone + cidofovir, Fa 0.97, listed as CDV): 3.271

Compound: Nc1nc2c(ncn2COC(CO)CO)c(=O)[nH]1 [ganciclovir]
- Dose of drug alone at Fa 0.75 [1]: 1.113 µm
- Dose of drug alone at Fa 0.9 [1]: 2.12 µm
- Dose of drug alone at Fa 0.9 ([1]; listed as GCV): 2.121 µm
- Dose of drug alone at Fa 0.95 [1]: 3.287 µm
- Dose of drug alone at Fa 0.97 [1]: 4.491 µm
- Dose of drug alone at Fa 0.05 [1]: 0.1039 µm
- pEC50 [1, 4]: 6.23
- pEC50 [1, 3]: 6.00
- DRI (dose reduction index) ([1]; combination artemisone + ganciclovir, Fa 0.05): 1.342
- DRI (dose reduction index) ([1]; combination artemisone + ganciclovir, Fa 0.5): 1.673
- DRI (dose reduction index) ([1]; combination artemisone + ganciclovir, Fa 0.75): 1.817
- DRI (dose reduction index) ([1]; combination artemisone + ganciclovir, Fa 0.9, listed as GCV): 1.973
- DRI (dose reduction index) ([1]; combination artemisone + ganciclovir, Fa 0.95): 2.09
- DRI (dose reduction index) ([1]; combination artemisone + ganciclovir, Fa 0.95, listed as GCV): 2.086
- DRI (dose reduction index) ([1]; combination artemisone + ganciclovir, Fa 0.97): 2.171

Compound: COc1cccc(N2CCN(C3=Nc4c(F)cccc4[C@H](CC(=O)O)N3c3cc(C(F)(F)F)ccc3OC)CC2)c1 [letermovir]
- Dose of drug alone at Fa 0.75 [1]: 0.00438 µm
- Dose of drug alone at Fa 0.9 [1]: 0.00952 µm
- Dose of drug alone at Fa 0.95 [1]: 0.01614 µm
- Dose of drug alone at Fa 0.97 [1]: 0.02351 µm
- Dose of drug alone at Fa 0.05 [1]: 2.51E-4 µm
- pEC50 [1, 4]: 8.70
- pEC50 [1, 3]: 8.30
- DRI (dose reduction index) ([1]; combination artemisone + letermovir, Fa 0.05): 0.5226
- DRI (dose reduction index) ([1]; combination artemisone + letermovir, Fa 0.5): 1.044
- DRI (dose reduction index) ([1]; combination artemisone + letermovir, Fa 0.75): 1.351
- DRI (dose reduction index) ([1]; combination artemisone + letermovir, Fa 0.9): 1.75
- DRI (dose reduction index) ([1]; combination artemisone + letermovir, Fa 0.9, listed as Let): 1.749
- DRI (dose reduction index) ([1]; combination artemisone + letermovir, Fa 0.95): 2.084
- DRI (dose reduction index) ([1]; combination artemisone + letermovir, Fa 0.97): up to 2.4
- DRI (dose reduction index) ([1]; combination artemisone + letermovir, Fa 0.97, listed as Let): 2.362

- pEC50 ([2]; ex vivo, Fa 0.5, drug alone, read-out: Dose of drug alone at Fa 0.5): 6.73
- pEC50 ([2]; sole drug, ex vivo decidual tissues, read-out: EC50 (concentration required to reduce the viral mRNA copy number by 50%)): 6.60
Compound: CC(C)Nc1nc2cc(Cl)c(Cl)cc2n1[C@H]1O[C@@H](CO)[C@H](O)[C@@H]1O [maribavir]
- Dose of drug alone at Fa 0.75 [1]: 0.8994 µm
- Dose of drug alone at Fa 0.9 [1]: 3.458 µm
- Dose of drug alone at Fa 0.95 [1]: 8.644 µm
- Dose of drug alone at Fa 0.97 [1]: 16.5865 µm
- Dose of drug alone at Fa 0.05 [1]: 0.00633 µm
- pEC50 [1, 4]: 6.63
- pEC50 [1, 3]: 6.00
- DRI (dose reduction index) ([1]; combination artemisone + maribavir, Fa 0.05): 2.039
- DRI (dose reduction index) ([1]; combination artemisone + maribavir, Fa 0.5): 5.884
- DRI (dose reduction index) ([1]; combination artemisone + maribavir, Fa 0.75): 8.738
- DRI (dose reduction index) ([1]; combination artemisone + maribavir, Fa 0.9): 12.98
- DRI (dose reduction index) ([1]; combination artemisone + maribavir, Fa 0.9, listed as MBV): 12.9771
- DRI (dose reduction index) ([1]; combination artemisone + maribavir, Fa 0.95): 16.9821
- DRI (dose reduction index) ([1]; combination artemisone + maribavir, Fa 0.97): 20.6
- DRI (dose reduction index) ([1]; combination artemisone + maribavir, Fa 0.97, listed as MBV): 20.5640
- Dose of drug alone at Fa 0.05 ([2]; ex vivo, Fa 0.05, drug alone): 0.01861 µm
- Dose of drug alone at Fa 0.75 ([2]; ex vivo, Fa 0.75, drug alone): 0.4396 µm
- Dose of drug alone at Fa 0.9 ([2]; ex vivo): 1.03 µm
- Dose of drug alone at Fa 0.9 ([2]; ex vivo, listed as MBV): 1.038 µm
- Dose of drug alone at Fa 0.95 ([2]; ex vivo, Fa 0.95, drug alone): 1.862 µm
- Dose of drug alone at Fa 0.97 ([2]; ex vivo, Fa 0.97, drug alone): 2.822 µm
- DRI (dose reduction index) ([2]; ex vivo, Fa 0.05): 0.66
- DRI (dose reduction index) ([2]; ex vivo, Fa 0.5): 0.982
- DRI (dose reduction index) ([2]; ex vivo, Fa 0.75): 1.139
- DRI (dose reduction index) ([2]; ex vivo, Fa 0.9): 1.3
- DRI (dose reduction index) ([2]; ex vivo, Fa 0.9, listed as MBV): 1.321
- DRI (dose reduction index) ([2]; ex vivo, Fa 0.95, listed as MBV): 1.461
- DRI (dose reduction index) ([2]; ex vivo, Fa 0.97): 1.57

Compound: brincidofovir
- pEC50 ([1]; Fa 0.5, drug alone, read-out: Dose of drug alone at Fa 0.5): 9.19
- Dose of drug alone at Fa 0.75 [1]: 0.001 µm
- Dose of drug alone at Fa 0.9 [1]: 0.002 µm
- Dose of drug alone at Fa 0.95 [1]: 0.002 µm
- Dose of drug alone at Fa 0.97 [1]: 0.003 µm
- Dose of drug alone at Fa 0.05 [1]: 1.87E-4 µm
- DRI (dose reduction index) ([1]; combination artemisone + brincidofovir, Fa 0.05): 1.43
- DRI (dose reduction index) ([1]; combination artemisone + brincidofovir, Fa 0.5): 1.48
- DRI (dose reduction index) ([1]; combination artemisone + brincidofovir, Fa 0.75): 1.5
- DRI (dose reduction index) ([1]; combination artemisone + brincidofovir, Fa 0.9): up to 1.5
- DRI (dose reduction index) ([1]; combination artemisone + brincidofovir, Fa 0.9, listed as BCV): 1.52
- DRI (dose reduction index) ([1]; combination artemisone + brincidofovir, Fa 0.95): 1.53
- DRI (dose reduction index) ([1]; combination artemisone + brincidofovir, Fa 0.97): 1.54
- pEC50 ([1]; drug alone, human foreskin fibroblasts, read-out: EC50 (concentration that reduced the plaque formation by 50%)): 9.00

From patent US20230149418A1, “METHODS AND SYNERGIC COMPOSITIONS FOR TREATING VIRAL INFECTIONS” (HADASIT MEDICAL RESEARCH SERVICES AND DEVELOPMENT LTD., priority 2018, published 2023)
